Where a name gives a salt, the structure may show the parent alone. Blank lines part the entries; values can stand above or below the compound they belong to.
Experiments:
EBC-1 cells = assay: EBC-1 cell proliferation experiment (CellTiter-Glo); type: cell-based, human; settings: Homo sapiens, EBC-1, 72 h, 3 days
Method: MEM medium, fetal bovine serum, penicillin/streptomycin antibiotics were purchased from Wisent. EBC-1 cell line was purchased from Nanjing COBIO Bioscience Co., LTD. Envision multi-label analyzer (PerkinElmer).
EBC-1 cells were seeded in a white 96-well plate, […] cell suspension per well, which contained 3000 EBC-1 cells. The cell plate was placed in a carbon dioxide incubator for overnight culture.
The compound to be tested was diluted 5-fold to the eighth concentration with a discharge gun, i.e., from 2 mM to […], and double duplicate wells experiment was set. 78 μL of the medium was added to the middle plate, then 2 μL per well of gradient diluted compound was transferred to the corresponding position on the middle plate, then mixed well and 20 μL per well was transferred to the cell plate. The cell plate was cultured in a carbon dioxide incubator for 3 days. Another cell plate was prepared and the signal values were read on the day of dosing as […] to be used in the data analysis. 25 μL of Promega CellTiter-Glo was added to each well of this cell plate, and incubated at room temperature for 10 minutes to stabilize the luminescence signal. Readings were taken using a PerkinElmer Envision multi-label analyzer.
25 μL of Promega CellTiter-Glo reagent was added to each well of this cell plate, and incubated at room temperature for 10 minutes to stabilize the luminescence signal. Readings were taken using a PerkinElmer Envision multi-label analyzer.
Using the equation (Sample-Min)/(Max-Min)*100% to convert the original data to the inhibition rate, the IC50 value can be obtained by curve fitting with four parameters (obtained by “log(inhibitor) vs. response in GraphPad Prism—Variable slope mode).

[1] = Pharmacokinetics of single intravenous and oral administration in dogs; type: in vivo; settings: for Vd / clearance / half-life / bioavailability: dog, plasma; for Vd / clearance / half-life / Exposure AUC: intravenous injection, 1 mg/kg; for Vd: read-out: Apparent volume of distribution; for clearance: read-out: Clearance rate; for half-life: read-out: Half-life (T1/2) (converted); for bioavailability / Exposure AUC0-last / Maximum blood concentration / Peak time: oral administration, 5 mg/kg
Method: The objective of this experiment was to study the pharmacokinetics (PK) of the test compound in different species after a single intravenous and a single oral administration.
After intravenous injection or oral administration, animal blood samples were collected and the actual blood collection time was recorded. Immediately after collection, blood samples were transferred to labeled centrifuge tubes containing K2-EDTA and subsequently centrifuged and processed to obtain plasma. Plasma was transferred to pre-cooled centrifuge tubes, snap-frozen in dry ice and stored in an ultra-low temperature refrigerator at −70±10° C. until LC-MS was performed.
Plasma drug concentration data of the compounds were processed using pharmacokinetic software with a non-compartmental model. The peak concentration (Cmax) and time to peak (Tmax), as well as the quantifiable end time, were obtained directly from the blood concentration-time diagram. The log-linear trapezoidal method was used to calculate the following pharmacokinetic parameters: half-life (T1/2), apparent volume of distribution (Vdss) and clearance rate (Cl), and the area under the time-plasma concentration curve from 0 points to the end time (AUC0-last), the initial concentration (C0).

[2] = test system: human lung cancer EBC-1 xenograft tumor; assay: In vivo drug efficacy, human lung cancer EBC-1 xenograft tumor in nude mice; set-up: species or system BALB/c nude mice; settings: for Tumor volume: n = 6; for TGI (tumor growth inhibition rate) / TRTV/CRTV (relative tumor proliferation rate T/C): 25th day
Method: BALB/c nude mice, female, 6-8 weeks old, weighing about 18-20 grams, animals were raised in SPF-class animal rooms in IVC (independent air supply system, constant temperature and humidity) cages (3 per cage). All cages, bedding and water were disinfected before use. All animals had free access to standard certified commercial laboratory diets. A total of 36 mice purchased from Shanghai Lingchang Biotechnology Co., Ltd. were used for research. Each animal was inoculated with 0.1 mL (5×10^6 cells) of EBC-1 cells on the right back, when the average tumor volume reached 243 mm^3, the animals were randomly grouped and the administration was started. The test compound was orally administered daily, the dose of hydrochloride of compound 24 was 10 mg/kg, the two doses of hydrochloride of compound 25 were 10 mg/kg and 20 mg/kg, respectively, and the dose of hydrochloride of compound 29 was 10 mg/kg. The tumor diameter was measured with vernier calipers twice a week. The calculation formula of tumor volume was: V=0.5a×b^2, a and b represented the long diameter and short diameter of the tumor, respectively. The anti-tumor efficacy of the compound was evaluated by TGI (%) or the relative tumor proliferation rate T/C (%). Relative tumor proliferation rate T/C (%)=TRTV/CRTV×100% (TRTV: average RTV in the treatment group; CRTV: average RTV in the negative control group). The relative tumor volume (RTV) was calculated according to the results of tumor measurement, the calculation formula was RTV=Vt/V0, wherein V0 was the tumor volume measured at the time of the grouping administration (i.e. D0), Vt was the tumor volume at a certain measurement, and TRTV and CRTV were taken on the same day. TGI (%) reflected the tumor growth inhibition rate. TGI (%)=[(1−(average tumor volume of a certain treatment group after administration-average tumor volume of the treatment group at the beginning of administration))/(average tumor volume of the solvent control group after the administration-average tumor volume of the solvent control group at the beginning of the administration)]×100%. Statistical analysis was performed based on RTV data at the end of the experiment, and SPSS software was used for analysis.

Vd [1]: 14.6 L/kg | clearance [1]: 18.7 mL/min/kg | half-life [1]: 9.47 h | bioavailability [1]: 70.6% | Exposure AUC [1]: 1.34 µM·h | Exposure AUC0-last [1]: 4.74 µM·h | Maximum blood concentration [1]: 451 nM | Peak time [1]: 5 h
Structure (SMILES): CC(C)(O)CN1CCC(COc2cnc(-c3cccc(Cn4c(=O)ccn5c6cc(C#N)ccc6nc45)c3)nc2)CC1 [Hydrochloride of compound 39]
IC50 (EBC-1 cells): 4.81 nM

Vd [1]: 14.4 L/kg | clearance [1]: 24.2 mL/min/kg | half-life [1]: 7.87 h | bioavailability [1]: 57.7% | Exposure AUC [1]: 1.23 µM·h | Exposure AUC0-last [1]: 3.54 µM·h | Maximum blood concentration [1]: 246 nM | Peak time [1]: 4 h
Structure (SMILES): CC(C)N1CCC(COc2cnc(-c3cccc(Cn4c(=O)ccn5c6cc(C#N)ccc6nc45)c3)nc2)CC1 [Hydrochloride of compound 25]
IC50 (EBC-1 cells): 1.87 nM | Tumor volume ([2]; 10 mg/kg oral daily (stopped after 15 days), day 18, mean ± standard error): 34 ± 4 mm^3 | Tumor volume ([2]; 10 mg/kg oral daily (stopped after 15 days), day 21, mean ± standard error): 44 ± 6 mm^3 | Tumor volume ([2]; 10 mg/kg oral daily (stopped after 15 days), day 25, mean ± standard error): 83 ± 11 mm^3 | Tumor volume ([2]; 10 mg/kg oral daily (stopped after 15 days), day 25, mean ± standard error, listed as hydrochloride of compound 25): 83 mm^3 | Tumor volume ([2]; 10 mg/kg oral daily (stopped after 15 days), day 27, mean ± standard error): 120 ± 25 mm^3 | TGI (tumor growth inhibition rate) ([2]; 10 mg/kg oral daily): 108.9% | TRTV/CRTV (relative tumor proliferation rate T/C) ([2]; 10 mg/kg oral daily): 4.3% | Tumor volume ([2]; 10 mg/kg oral daily, day 0, mean ± standard error): 243 ± 21 mm^3 | Tumor volume ([2]; 10 mg/kg oral daily, day 4, mean ± standard error): 247 ± 20 mm^3 | Tumor volume ([2]; 10 mg/kg oral daily, day 7, mean ± standard error): 162 ± 13 mm^3 | Tumor volume ([2]; 10 mg/kg oral daily, day 11, mean ± standard error): 67 ± 9 mm^3 | Tumor volume ([2]; 10 mg/kg oral daily, day 14, mean ± standard error): 46 ± 5 mm^3 | Tumor volume ([2]; 20 mg/kg oral daily (stopped after 15 days), day 18, mean ± standard error): 4 ± 0 mm^3 | Tumor volume ([2]; 20 mg/kg oral daily (stopped after 15 days), day 21, mean ± standard error): 4 ± 0 mm^3 | Tumor volume ([2]; 20 mg/kg oral daily (stopped after 15 days), day 25, mean ± standard error): 4 ± 0 mm^3 | Tumor volume ([2]; 20 mg/kg oral daily (stopped after 15 days), day 25, mean ± standard error, listed as hydrochloride of compound 25): 4 mm^3 | Tumor volume ([2]; 20 mg/kg oral daily (stopped after 15 days), day 27, mean ± standard error): 2 ± 1 mm^3 | TGI (tumor growth inhibition rate) ([2]; 20 mg/kg oral daily): 113.4% | TRTV/CRTV (relative tumor proliferation rate T/C) ([2]; 20 mg/kg oral daily): 0.2% | Tumor volume ([2]; 20 mg/kg oral daily, day 0, mean ± standard error): 244 ± 22 mm^3 | Tumor volume ([2]; 20 mg/kg oral daily, day 4, mean ± standard error): 174 ± 12 mm^3 | Tumor volume ([2]; 20 mg/kg oral daily, day 7, mean ± standard error): 100 ± 8 mm^3 | Tumor volume ([2]; 20 mg/kg oral daily, day 11, mean ± standard error): 32 ± 3 mm^3 | Tumor volume ([2]; 20 mg/kg oral daily, day 14, mean ± standard error): 12 ± 3 mm^3

Source: US12122780B2, “Pyrimidinyl group-containing tricyclic compound serving as c-Met inhibitor” (JIANGSU AOSAIKANG PHARMACEUTICAL CO., LTD., priority 2019, dated 2024)
